Results on 3 compounds are retold here after patent US9981968B2, “Substituted pyrrolo[2,3-d]pyrimidines for the treatment of cancer and proliferative disorders” (Northwestern University, priority 2013, dated 2018).

For assay [1], the system named is NCI-H226. The assay is described as follows: SRB growth assay, NCI-H226. Format: cell-based. The conditions noted are these: Homo sapiens, NCI-H226 (Non-Small Cell Lung), 48 hours, read-out: Percent viability. From the text: (§1) Tested cell lines included, Leukemia: CCRF-CEM, HL-60(TB), MOLT-4, RPMI-8226 and SR; Non-Small Cell Lung: A549/ATCC, EKVX, HOP-62, HOP-92, NCI-H226, NCI-H23, NCI-H322M, NCI-H460 and NCI-H522; Colon: COLO 205, HCC-2998, HCT-116, HCT-15. HT29, KM12 and SW-620; CNS: SF-268, SF-295, SF-539, SNB-19, SNB-75 and U251; Melanoma: LOX IMVI, MALME-3M, M14, MDA-MB-435, SK-MEL-2, SK-MEL-28, SK-MEL-5, UACC-257 and UACC-62; Ovarian: IGR-OV1, OVCAR-3, OVCAR-4, OVCAR-5, OVCAR-8. NCI/ADR-RES and SK-OV-3; Renal: 786-0, A498, ACHN, CAKI-1, RXF 393, SN12C, TK-10 and UO-31; Prostate: DU-145 and PC-3; and Breast: MCF7, MDA-MB-231/ATCC, MDA-MB-468, HS 578T, BT-549 and T-47D.
(§2) The cells were cultured in RPMI1640 media supplemented with 10% Fetal Bovine Serum (FBS), 2 mM glutamine and with 5% CO2 and 37° C. For experiment, 5% of FBS and 50 ug/mL of gentamycin were used. Test articles were 10 μM of NUCL 381-3 or 10 μM NUCL 383-3. The positive control was 10 μM of doxorubicin.
(§3) Cells were plated in 96 well plates. The cells were plated in triplicate. Cells were plated at the densities based on NCI recommendation. Time zero cells (Tz) were fixed the following day with 50% or 80% ice cold Trichloracetic acid (TCA) and washed 5× with water. At 48 hours post addition of treatments, all remaining plates were fixed in 80% ice cold Trichloracetic acid (TCA) and washed 5× with water. After drying, one hundred microliters of 0.4% Sulphorhodamine B (SRB) in 1% acetic acid was added to each plate including the Tzero plate and incubated for 10 minutes at room temperature. After 5 additional washes with 1% acetic acid, plates were allowed to dry. One hundred microliters of Trizma base was added to each well and plates were read at 515 nm.
(§4) Percent of growth was calculated by the following formulas: [Ti/C]×100, where: Tz=absorbance readings for wells at time zero without treatment; C=absorbance readings of untreated cells (without treatment); and Ti=absorbance reading of wells with treatment.
In general terms: Sulforhodamine B stains cellular protein and so reports cell mass.

The test system of assay [2] is NCI-H522. Description: SRB growth assay, NCI-H522. The class given is cell-based. The conditions noted are these: Homo sapiens, NCI-H522 (Non-Small Cell Lung), 48 hours, read-out: Percent viability.
From the text: as §1, §2, §3, §4

Assay [3] has as its system COLO 205. Description: SRB growth assay, COLO 205. Format: cell-based. The note with it: Homo sapiens, COLO 205 (Colon), 48 hours, read-out: Percent viability.
From the text: as §1, §2, §3, §4

Assay [4] concerns HT29. Description: SRB growth assay, HT29. The class given is cell-based. The note with it: Homo sapiens, HT-29, HT29 (Colon), 48 hours, read-out: Percent viability.
From the text: as §1, §2, §3, §4

In assay [5] the test system is SF-268. The assay is described as follows: SRB growth assay, SF-268. The conditions noted are these: Homo sapiens, SF-268 (CNS), 48 hours, read-out: Percent viability. The class given is cell-based.
From the text: as §1, §2, §3, §4

In assay [6] the test system is SF-539. Description: SRB growth assay, SF-539. The class given is cell-based. The note with it: Homo sapiens, SF-539 (CNS), 48 hours, read-out: Percent viability.
From the text: as §1, §2, §3, §4

The test system of assay [7] is SNB-19. Description: SRB growth assay, SNB-19. The class given is cell-based. The conditions noted are these: Homo sapiens, SNB-19 (CNS), 48 hours, read-out: Percent viability.
From the text: as §1, §2, §3, §4

For assay [8], the system named is UACC-257. Description: SRB growth assay, UACC-257. The note with it: Homo sapiens, UACC-257 (Melanoma), 48 hours, read-out: Percent viability. The class given is cell-based.
From the text: as §1, §2, §3, §4

In assay [9] the test system is IGR-OV1. The assay is described as follows: SRB growth assay, IGR-OV1. The class given is cell-based. The conditions noted are these: Homo sapiens, IGROV-1, IGR-OV1 (Ovarian), 48 hours, read-out: Percent viability.
From the text: as §1, §2, §3, §4

For assay [10], the system named is SK-OV-3. Description: SRB growth assay, SK-OV-3. The class given is cell-based. The note with it: Homo sapiens, SK-OV-3 (Ovarian), 48 hours, read-out: Percent viability.
From the text: as §1, §2, §3, §4

Assay [11] concerns A498. The assay is described as follows: SRB growth assay, A498. The conditions noted are these: Homo sapiens, A498 (Renal), 48 hours, read-out: Percent viability. Format: cell-based.
From the text: as §1, §2, §3, §4

Assay [12] has as its system ACHN. Description: SRB growth assay, ACHN. The class given is cell-based. The note with it: Homo sapiens, ACHN (Renal), 48 hours, read-out: Percent viability.
From the text: as §1, §2, §3, §4

The test system of assay [13] is CAKI-1. The assay is described as follows: SRB growth assay, CAKI-1. Format: cell-based. The conditions noted are these: Homo sapiens, CAKI-1 (Renal), 48 hours, read-out: Percent viability.
From the text: as §1, §2, §3, §4

Assay [14] concerns MDA-MB-231. The assay is described as follows: SRB growth assay, MDA-MB-231. The note with it: Homo sapiens, MDA-MB-231 (Breast), 48 hours, read-out: Percent viability. Format: cell-based.
From the text: as §1, §2, §3, §4

Assay [15] has as its system MM1S. The assay is described as follows: SRB growth assay, MM1S. Format: cell-based. The note with it: Homo sapiens, MM1.S, MM1S (Multiple Myeloma), 48 hours, read-out: Percent viability.
Assay [16] concerns MM.1S cells. Description: MTS CellTiter 96 cell proliferation assay, MM.1S. The class given is cell-based, human. On the procedure: Cell viability was assessed by MTS assay as follows.
The MTS CellTiter 96 assay is a colorimetric method to assess the number of viable cells based on the conversion of a tetrazolium compound (MTS) to a formazan product by the mitochondrial dehydrogenase enzyme of the cells. This assay is used to determine the number of viable cells remaining following a drug treatment in comparison to the number of viable cells that are only treated with the drug vehicle (control cells). The amount of formazan product in the control cells is normalized to 100% and the amount of formazan in the drug treated cells is expressed as a percentage of control. This is used to generate dose response curve and estimate the drug concentration that produced a 50% decrease in the number of viable cells.

Assay [17] relates to NCI-60 Cell Lines. Description: Inhibiting growth of NCI-60 cell lines (panel summary). The conditions noted are these: 10 μM, compared to doxorubicin. The class given is cell-based, human. On the procedure:
NUCL 381-3 and NUCL 383-3 (referred to as “NUCC-00381” and “NUCC-000383” above, respectively) were administered to a variety of cancer cell lines in order to test their ability to inhibit cell growth as compared to doxorubicin.
as §1
The cells were cultured in RPMI1640 media supplemented with 10% Fetal Bovine Serum (FBS), 2 mM glutamine and with 5% CO2 and 37° C. […]
Cells were plated in 96 well plates. […] One hundred microliters of Trizma base was added to each well and plates were read at 515 nm.
as §4

One may read the viability as a read-out of living cells in per cent, often relative to untreated cells. By IC50 is commonly meant the concentration that inhibits the measured activity by half.

As for `COc1cccc2c1C(=O)c1c(O)c3c(c(O)c1C2=O)C[C@@](O)(C(=O)CO)C[C@@H]3O[C@H]1C[C@H](N)[C@H](O)[C@H](C)O1` [Doxorubicin, reference compound], the viability at 10 µM in assay [1] worked out at 34.2%; in assay [2], 18.1%; in [3], 2.33%; in [4], 34.9%; in assay [5], 6.91%; in assay [6] it was 6.83%. Besides, the viability at 10 µM in [7] turned out to be 37.3%; in assay [8], 100%; in assay [9], 8.63%; in assay [10], 47.8%; in assay [11], 62.9%; in assay [12], 40.2%. The figures for the viability at 10 µM in [13], in assay [14] and in assay [15] were 0%, 41.8% and 26.4%, respectively.

With `FC(F)(F)c1cn(CC2CCNCC2)c2ncnc(Cl)c12` [NUCC-0000381], the decreasing cell proliferation entry in assay [16] (0.1-10 μM, MTS assay, FIG. 1, compared with 8-amino adenosine) is reported as “as effective in decreasing cell proliferation as 8-amine-adenosine”. The IC50 in assay [16] (Homo sapiens, MM1.S, MTS cell proliferation assay, read-out: Estimated IC50) was 600 nM. Further, the viability at 10 µM in assay [1] is 54.9%; in [2] it was 38.7%; in assay [3], 79.5%; in assay [4], 33.3%; in assay [5], 3.37%; in assay [6] it was 7.4%. Further, the viability at 10 µM amounted to 28.9% in assay [7]; 87.2% in assay [8]; 36.9% in assay [9]; 56.5% in assay [10]; 93.8% in assay [11]; 23.3% in assay [12]. For the same compound, the viability at 10 µM in assay [13] was 86.8%; in assay [14], 48.5%; in [15], 52.3%. Also, the “cell viability across NCI-60 cell lines” value in [17] is “reduce cell viability for a number of cell lines”.

`CS(=O)(=O)N1CCC(Cn2cc(C(F)(F)F)c3c(Cl)ncnc32)CC1` [NUCC-0000383]: the viability at 10 µM in assay [1] is 29.5%; in assay [2] it was 21.7%; in assay [3], 93%; in assay [4] it was 30.3%; in assay [5], 1.77%; in assay [6], 4.93%. Further, the viability at 10 µM in [7] was found to be 21.4%; in [8], 74.7%; in assay [9] it was 77.5%; in [10], 74.2%; in assay [11], 101%; in assay [12], 77.8%. Further, the viability at 10 µM came to 46.8% in assay [13], 33.9% in assay [14] and 58.2% in [15].
